pEC50: −log10 of the molar value. Where two headings read alike, the source gives them in different places. Numbered stars: 1 amine (or outer) side, 2 acyl side, 3 side chain; on linkers, the order of the positions; unused ones are H or OH. Square brackets hold non-standard residues; d marks the D form. Side chains are listed from the residue outwards. Peptide text beside a SMILES is read from it. * marks the point of attachment. C20 diacid = O=C(O)CCCCCCCCCCCCCCCCCCC(=O)*; Phe(4-CH2NH2) = NCc1ccc(C[C@H](N)C(=O)O)cc1; C18 diacid = O=C(O)CCCCCCCCCCCCCCCCC(=O)*; γGlu = O=C(O)[C@H](CCC(=O)[*:2])N[*:1]; Met(O2) = CS(=O)(=O)CC[C@H](N)C(=O)O; αMeD = C[C@](N)(CC(=O)O)C(=O)O; αMeS = C[C@](N)(CO)C(=O)O; AEEA = NCCOCCOCC(=O)O; Aib = CC(C)(N)C(=O)O
Assays:
human GLP1R = molecular target: T1, human GLP1R (Homo sapiens, UniProt P43220); test: cAMP activity assay at the GLP-1 receptor (GLP1R); type: cell-based
T1 construct: expressed in transfected cells; growth medium holds Blasticidin and Hygromycin
Procedure, shortened: (§1)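 Peptides serially diluted from DMSO (10 points) and added to frozen-stock cells bearing human GLP1R (10,000 cells/well) or GCGR (30,000 cells/well), 1 h at RT, dark. EC50 by four-parameter logistic fit of HitHunter cAMPXS luminescence, read following overnight RT incubation.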

human GCGR = molecular target: T2, human GCGR (Homo sapiens, UniProt P47871); test: cAMP activity assay at the Glucagon receptor (GCGR); type: cell-based; conditions: for hGCGR/hGLP1R (hTone): ratio of GCGR EC50 to GLP1R EC50
T2 construct: expressed in transfected cells; growth medium holds Blasticidin and Hygromycin
Procedure, shortened: as §1

[1] = cells expressing human GLP1R, cAMP production, buffer with or without 20% human serum (not stated which), read-out: GLP1R EC50 human
[2] = summary statement: EC50 at each of the glucagon and GLP-1 receptors, read-out: EC50 at the GLP-1 receptor
[3] = summary statement: EC50 at each of the glucagon and GLP-1 receptors, read-out: EC50 at the glucagon receptor
[4] = cells expressing human GCGR, cAMP production, buffer with or without 20% human serum (not stated which), read-out: GCGR EC50 human

T1 sequence (P43220 24-463): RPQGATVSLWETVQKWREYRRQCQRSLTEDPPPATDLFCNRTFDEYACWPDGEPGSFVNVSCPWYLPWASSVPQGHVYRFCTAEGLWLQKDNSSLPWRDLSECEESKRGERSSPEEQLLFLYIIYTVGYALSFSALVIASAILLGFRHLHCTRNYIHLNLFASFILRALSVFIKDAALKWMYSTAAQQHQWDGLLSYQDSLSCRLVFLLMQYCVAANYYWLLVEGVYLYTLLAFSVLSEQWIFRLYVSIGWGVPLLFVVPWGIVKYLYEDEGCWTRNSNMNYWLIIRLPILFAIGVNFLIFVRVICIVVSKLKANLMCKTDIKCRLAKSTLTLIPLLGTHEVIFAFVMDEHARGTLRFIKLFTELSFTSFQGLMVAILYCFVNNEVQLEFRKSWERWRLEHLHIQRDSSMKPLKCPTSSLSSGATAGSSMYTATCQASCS
T2 sequence (P47871 26-477): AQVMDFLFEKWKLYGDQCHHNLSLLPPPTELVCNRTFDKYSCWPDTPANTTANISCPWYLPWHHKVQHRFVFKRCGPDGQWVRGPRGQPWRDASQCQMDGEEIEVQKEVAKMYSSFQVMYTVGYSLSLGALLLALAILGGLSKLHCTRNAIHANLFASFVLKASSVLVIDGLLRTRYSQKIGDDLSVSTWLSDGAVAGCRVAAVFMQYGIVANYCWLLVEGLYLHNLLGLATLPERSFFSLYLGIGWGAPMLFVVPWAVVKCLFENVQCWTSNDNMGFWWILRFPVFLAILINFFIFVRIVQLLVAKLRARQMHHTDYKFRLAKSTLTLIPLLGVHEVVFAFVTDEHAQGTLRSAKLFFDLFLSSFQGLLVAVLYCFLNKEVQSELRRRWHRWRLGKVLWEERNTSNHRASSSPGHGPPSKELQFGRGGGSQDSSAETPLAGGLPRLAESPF

SMILES | pEC50 (human GLP1R; [1]) | pEC50 (human GLP1R; [2]) | hGCGR/hGLP1R (hTone) (human GCGR) | pEC50 (human GCGR; [3]) | pEC50 (human GCGR; [4])
CC(C)C[C@H](NC(=O)[C@H](Cc1ccc(O)cc1)NC(=O)[C@H](CCCCN)NC(=O)[C@H](CO)NC(=O)[C@H](Cc1ccc(O)cc1)NC(=O)[C@H](CC(=O)O)NC(=O)[C@H](CO)NC(=O)[C@H](Cc1ccccc1)NC(=O)[C@H](Cc1ccccc1)NC(=O)[C@@H](NC(=O)CNC(=O)[C@H](CCC(N)=O)NC(=O)C(C)(C)NC(=O)[C@@H](N)Cc1c[nH]cn1)[C@@H](C)O)C(=O)N[C@@H](CC(=O)O)C(=O)N[C@@H](C)C(=O)N[C@@H](CCCNC(=N)N)C(=O)N[C@@H](C)C(=O)N[C@@H](C)C(=O)N[C@@H](CCCCNC(=O)COCCOCCNC(=O)COCCOCCNC(=O)CC[C@H](NC(=O)CCCCCCCCCCCCCCCCC(=O)O)C(=O)O)C(=O)N[C@@H](CC(=O)O)C(=O)N[C@@H](Cc1ccccc1)C(=O)N[C@H](C(=O)N[C@@H](CCC(N)=O)C(=O)N[C@@H](Cc1c[nH]c2ccccc12)C(=O)N[C@@H](CC(C)C)C(=O)N[C@@H](CCS(C)(=O)=O)C(=O)N[C@@H](CC(=O)O)C(=O)N[C@H](C(N)=O)[C@@H](C)O)C(C)C [TP595] (H-H[Aib]QGTFFSDYSKYLDARAAK([AEEA-AEEA-γGlu-C18 diacid])DFVQWL[Met(O2)]DT-NH2; N-terminus assumed) | < 7.70 | > 8.30 | 0.2 | > 8.30 | –
CC(C)C[C@H](NC(=O)[C@H](Cc1ccc(O)cc1)NC(=O)[C@H](CCCCN)NC(=O)[C@H](CO)NC(=O)[C@H](Cc1ccc(O)cc1)NC(=O)[C@H](CC(=O)O)NC(=O)[C@H](CO)NC(=O)[C@@H](NC(=O)[C@H](Cc1ccccc1)NC(=O)[C@@H](NC(=O)CNC(=O)[C@H](CCC(N)=O)NC(=O)C(C)(C)NC(=O)[C@@H](N)Cc1c[nH]cn1)[C@@H](C)O)[C@@H](C)O)C(=O)N[C@@H](CC(=O)O)C(=O)N[C@@H](C)C(=O)N[C@@H](CCCNC(=N)N)C(=O)N[C@@H](C)C(=O)N[C@@H](C)C(=O)N[C@@H](CCC(N)=O)C(=O)N[C@@H](Cc1ccc(CNC(=O)COCCOCCNC(=O)COCCOCCNC(=O)COCCOCCNC(=O)CC[C@H](NC(=O)CCCCCCCCCCCCCCCCC(=O)O)C(=O)O)cc1)C(=O)N[C@@H](Cc1ccccc1)C(=O)N[C@H](C(=O)N[C@@H](CCC(N)=O)C(=O)N[C@@H](Cc1c[nH]c2ccccc12)C(=O)N[C@@H](CC(C)C)C(=O)N[C@@H](CC(C)C)C(=O)N[C@@H](CC(=O)O)C(=O)N[C@H](C(N)=O)[C@@H](C)O)C(C)C [TP679] (H-H[Aib]QGTFTSDYSKYLDARAAQ[Phe(4-CH2NH2)]([AEEA-AEEA-AEEA-γGlu-C18 diacid])FVQWLLDT-NH2; N-terminus assumed) | 9.74 | > 8.30 | 0.7 | > 8.30 | –
CC(C)C[C@H](NC(=O)[C@H](Cc1ccc(O)cc1)NC(=O)[C@H](CCCCN)NC(=O)[C@H](CO)NC(=O)[C@H](Cc1ccc(O)cc1)NC(=O)[C@H](CC(=O)O)NC(=O)[C@H](CO)NC(=O)[C@@H](NC(=O)[C@H](Cc1ccccc1)NC(=O)[C@@H](NC(=O)CNC(=O)[C@H](CCC(N)=O)NC(=O)C(C)(C)NC(=O)[C@@H](N)Cc1c[nH]cn1)[C@@H](C)O)[C@@H](C)O)C(=O)N[C@@H](CC(=O)O)C(=O)N[C@@H](C)C(=O)N[C@@H](CCCNC(=N)N)C(=O)N[C@@H](C)C(=O)N[C@@H](C)C(=O)N[C@@H](CCC(N)=O)C(=O)N[C@@H](CC(=O)O)C(=O)N[C@@H](Cc1ccccc1)C(=O)N[C@H](C(=O)N[C@@H](Cc1ccc(CNC(=O)COCCOCCNC(=O)CC[C@H](NC(=O)CCCCCCCCCCCCCCCCC(=O)O)C(=O)O)cc1)C(=O)N[C@@H](Cc1c[nH]c2ccccc12)C(=O)N[C@@H](CC(C)C)C(=O)N[C@@H](CC(C)C)C(=O)N[C@@H](CC(=O)O)C(=O)N[C@H](C(N)=O)[C@@H](C)O)C(C)C [TP638] (H-H[Aib]QGTFTSDYSKYLDARAAQDFV[Phe(4-CH2NH2)]([AEEA-γGlu-C18 diacid])WLLDT-NH2) | – | > 8.30 | 3.3 | > 8.30 | –
CC(C)C[C@H](NC(=O)[C@H](Cc1ccc(O)cc1)NC(=O)[C@H](CCCCN)NC(=O)[C@H](CO)NC(=O)[C@H](Cc1ccc(O)cc1)NC(=O)[C@H](CC(=O)O)NC(=O)[C@H](CO)NC(=O)[C@@H](NC(=O)[C@H](Cc1ccccc1)NC(=O)[C@@H](NC(=O)CNC(=O)[C@H](CCC(N)=O)NC(=O)[C@](C)(CO)NC(=O)[C@@H](N)Cc1c[nH]cn1)[C@@H](C)O)[C@@H](C)O)C(=O)N[C@@H](CC(=O)O)C(=O)NC(C)(C)C(=O)N[C@@H](CCCNC(=N)N)C(=O)N[C@@H](C)C(=O)N[C@@H](C)C(=O)N[C@@H](CCC(N)=O)C(=O)N[C@@H](CCCCNC(=O)COCCOCCNC(=O)COCCOCCNC(=O)CC[C@H](NC(=O)CCCCCCCCCCCCCCCCC(=O)O)C(=O)O)C(=O)N[C@@H](Cc1ccccc1)C(=O)N[C@H](C(=O)N[C@@H](CCC(N)=O)C(=O)N[C@@H](Cc1c[nH]c2ccccc12)C(=O)N[C@@H](CC(C)C)C(=O)N[C@@H](CCS(C)(=O)=O)C(=O)N[C@@](C)(CC(=O)O)C(=O)N[C@H](C(N)=O)[C@@H](C)O)C(C)C [TP621] (H-H[αMeS]QGTFTSDYSKYLD[Aib]RAAQK([AEEA-AEEA-γGlu-C18 diacid])FVQWL[Met(O2)][αMeD]T-NH2) | – | > 8.30 | 0.1 | > 8.30 | 9.60
CC(C)C[C@H](NC(=O)[C@H](Cc1ccc(O)cc1)NC(=O)[C@H](CCCCN)NC(=O)[C@H](CO)NC(=O)[C@H](Cc1ccc(O)cc1)NC(=O)[C@H](CC(=O)O)NC(=O)[C@H](CO)NC(=O)[C@@H](NC(=O)[C@H](Cc1ccccc1)NC(=O)[C@@H](NC(=O)CNC(=O)[C@H](CCC(N)=O)NC(=O)[C@](C)(CO)NC(=O)[C@@H](N)Cc1c[nH]cn1)[C@@H](C)O)[C@@H](C)O)C(=O)N[C@@H](CC(=O)O)C(=O)N[C@@H](C)C(=O)N[C@@H](CCCNC(=N)N)C(=O)N[C@@H](C)C(=O)N[C@@H](C)C(=O)N[C@@H](CCCCNC(=O)COCCOCCNC(=O)COCCOCCNC(=O)CC[C@H](NC(=O)CCCCCCCCCCCCCCCCC(=O)O)C(=O)O)C(=O)N[C@@H](CC(=O)O)C(=O)N[C@@H](Cc1ccccc1)C(=O)N[C@H](C(=O)N[C@@H](CCC(N)=O)C(=O)N[C@@H](Cc1c[nH]c2ccccc12)C(=O)N[C@@H](CC(C)C)C(=O)N[C@@H](CCS(C)(=O)=O)C(=O)N[C@@](C)(CC(=O)O)C(=O)N[C@H](C(N)=O)[C@@H](C)O)C(C)C [TP616] (H-H[αMeS]QGTFTSDYSKYLDARAAK([AEEA-AEEA-γGlu-C18 diacid])DFVQWL[Met(O2)][αMeD]T-NH2; N-terminus assumed) | – | > 8.30 | 0.7 | > 8.30 | –
CC(C)C[C@H](NC(=O)[C@H](Cc1ccc(O)cc1)NC(=O)[C@H](CCCCN)NC(=O)[C@H](CO)NC(=O)[C@H](Cc1ccc(O)cc1)NC(=O)[C@H](CC(=O)O)NC(=O)[C@H](CO)NC(=O)[C@@H](NC(=O)[C@H](Cc1ccccc1)NC(=O)[C@@H](NC(=O)CNC(=O)[C@H](CCC(N)=O)NC(=O)C(C)(C)NC(=O)[C@@H](N)Cc1c[nH]cn1)[C@@H](C)O)[C@@H](C)O)C(=O)N[C@@H](CC(=O)O)C(=O)N[C@@H](CO)C(=O)N[C@@H](CCCNC(=N)N)C(=O)N[C@@H](C)C(=O)N[C@@H](C)C(=O)N[C@@H](CCCCNC(=O)COCCOCCNC(=O)COCCOCCNC(=O)CC[C@H](NC(=O)CCCCCCCCCCCCCCCCCCC(=O)O)C(=O)O)C(=O)N[C@@H](CC(=O)O)C(=O)N[C@@H](Cc1ccccc1)C(=O)N[C@H](C(=O)N[C@@H](CCC(N)=O)C(=O)N[C@@H](Cc1c[nH]c2ccccc12)C(=O)N[C@@H](CC(C)C)C(=O)N[C@@H](CCS(C)(=O)=O)C(=O)N[C@@H](CC(=O)O)C(=O)N[C@H](C(N)=O)[C@@H](C)O)C(C)C [TP577] (H-H[Aib]QGTFTSDYSKYLDSRAAK([AEEA-AEEA-γGlu-C20 diacid])DFVQWL[Met(O2)]DT-NH2; N-terminus assumed) | – | > 8.30 | 2.7 | > 8.30 | 8.34
CC(C)C[C@H](NC(=O)[C@H](Cc1ccc(O)cc1)NC(=O)[C@H](CCCCN)NC(=O)[C@H](CO)NC(=O)[C@H](Cc1ccc(O)cc1)NC(=O)[C@H](CC(=O)O)NC(=O)[C@H](CO)NC(=O)[C@@H](NC(=O)[C@H](Cc1ccccc1)NC(=O)[C@@H](NC(=O)CNC(=O)[C@H](CCC(N)=O)NC(=O)C(C)(C)NC(=O)[C@@H](N)Cc1c[nH]cn1)[C@@H](C)O)[C@@H](C)O)C(=O)N[C@@H](CC(=O)O)C(=O)N[C@@H](C)C(=O)N[C@@H](CCCNC(=N)N)C(=O)N[C@@H](C)C(=O)N[C@@H](C)C(=O)N[C@@H](CCCCNC(=O)COCCOCCNC(=O)COCCOCCNC(=O)CC[C@H](NC(=O)CCCCCCCCCCCCCCCCCCC(=O)O)C(=O)O)C(=O)N[C@@](C)(CC(=O)O)C(=O)N[C@@H](Cc1ccccc1)C(=O)N[C@H](C(=O)N[C@@H](CCC(N)=O)C(=O)N[C@@H](Cc1c[nH]c2ccccc12)C(=O)N[C@@H](CC(C)C)C(=O)N[C@@H](CCS(C)(=O)=O)C(=O)N[C@@H](CC(=O)O)C(=O)N[C@H](C(N)=O)[C@@H](C)O)C(C)C [TP594] (H-H[Aib]QGTFTSDYSKYLDARAAK([AEEA-AEEA-γGlu-C20 diacid])[αMeD]FVQWL[Met(O2)]DT-NH2; N-terminus assumed) | – | > 8.30 | 1.9 | > 8.30 | 8.31

From patent US11566057B2, “Long-acting co-agonists of the glucagon and GLP-1 receptors” (Merck Sharp & Dohme Corp., priority 2017, dated 2023)
